The test system of experiment [1] is Enterococcus faecium. The experiment in a line: Antimicrobial activity against Vancomycin-resistant Enterococcus faecium assessed as reduction in bacterial viability incubated for 18 hrs by CLSI protocol based Muller Hinton broth based dilution assay. The experiment is classed as functional.
The subject of experiment [2] is Staphylococcus aureus. The experiment in a line: Antimicrobial activity against […] Staphylococcus aureus ATCC 29213 assessed as reduction in bacterial viability incubated for 18 hrs by CLSI protocol based Muller Hinton broth based dilution assay. The experiment is classed as functional.
Experiment [3] has as its system Staphylococcus aureus. The experiment in a line: Antibacterial activity against […] Staphylococcus aureus ATCC 6538 assessed as microbial growth inhibition incubated for 24 hrs by broth micro-dilution analysis. The format is functional. Background: Dilution methods test growth across graded concentrations, often in twofold steps.
The subject of experiment [4] is Staphylococcus aureus. The experiment in a line: Antibacterial activity against Methicillin-resistant Staphylococcus aureus ATCC 43300 clinical isolate assessed as reduction in microbial growth incubated for 16 to 20 hrs by CLSI based two-fold serial dilution method. The following applies: time 16-20 hrs. The experiment is classed as functional.
The test system of experiment [5] is Staphylococcus aureus. The experiment is described as follows: Antibacterial activity against […] Staphylococcus aureus ATCC 25923 assessed as reduction in bacterial growth incubated for 24 hrs by micro-broth dilution method. The format is functional.
Experiment [6] has as its target DNA gyrase (Escherichia coli, UniProt P0AES4+P0AES6). The experiment is described as follows: Inhibition of Escherichia coli DNA gyrase assessed as reduction in enzyme-mediated supercoiling of relaxed plasmid by fluorescence polarization assay. The experiment is classed as protein-complex assay. On the technique in general: Polarisation of emitted light reports the rotation of a fluorescent probe.

Experiment [7] addresses DNA gyrase (Staphylococcus aureus, UniProt P0A0K8+P20831). The experiment is described as follows: Inhibition of Staphylococcus aureus DNA gyrase. The experiment is classed as protein-complex assay.
Experiment [8] relates to Staphylococcus aureus. The experiment in a line: Antibacterial activity against […] Staphylococcus aureus ATCC 6538 assessed as reduction in bacterial growth incubated for 18 hrs by CLSI based broth-dilution method. The format is functional.
Experiment [9] has as its system Staphylococcus aureus. The experiment in a line: Antimicrobial activity against Methicillin-resistant Staphylococcus aureus ATCC BAA41 assessed as bacterial growth inhibition measured after 18 hrs by CLSI based Muller Hinton broth microdilution method. The experiment is classed as functional.
For experiment [10], the system named is Staphylococcus aureus. The experiment in a line: Antimicrobial activity against Methicillin-resistant Staphylococcus aureus ATCC 33591 assessed as bacterial growth inhibition measured after 18 hrs by CLSI based Muller Hinton broth microdilution method. The format is functional.
In experiment [11] the test system is Staphylococcus aureus. The experiment in a line: Antimicrobial activity against Methicillin-resistant Staphylococcus aureus ATCC 43300 assessed as bacterial growth inhibition measured after 18 hrs by CLSI based Muller Hinton broth microdilution method. The format is functional.
The test system of experiment [12] is Staphylococcus aureus. The experiment in a line: Antibacterial activity against Staphylococcus aureus assessed as reduction in bacterial growth by CLSI based two-fold microdilution method. The format is functional.
The test system of experiment [13] is Staphylococcus aureus. The experiment is described as follows: Antibacterial activity against methicillin-resistant Staphylococcus aureus assessed as reduction in microbial growth measured for 24 hrs by CLSI based broth microdilution method. The experiment is classed as functional.

In brackets after ≈: the same amount, converted by molar mass.

Sequence of DNA gyrase (Staphylococcus aureus, UniProt P0A0K8+P20831) (P0A0K8 whole entry): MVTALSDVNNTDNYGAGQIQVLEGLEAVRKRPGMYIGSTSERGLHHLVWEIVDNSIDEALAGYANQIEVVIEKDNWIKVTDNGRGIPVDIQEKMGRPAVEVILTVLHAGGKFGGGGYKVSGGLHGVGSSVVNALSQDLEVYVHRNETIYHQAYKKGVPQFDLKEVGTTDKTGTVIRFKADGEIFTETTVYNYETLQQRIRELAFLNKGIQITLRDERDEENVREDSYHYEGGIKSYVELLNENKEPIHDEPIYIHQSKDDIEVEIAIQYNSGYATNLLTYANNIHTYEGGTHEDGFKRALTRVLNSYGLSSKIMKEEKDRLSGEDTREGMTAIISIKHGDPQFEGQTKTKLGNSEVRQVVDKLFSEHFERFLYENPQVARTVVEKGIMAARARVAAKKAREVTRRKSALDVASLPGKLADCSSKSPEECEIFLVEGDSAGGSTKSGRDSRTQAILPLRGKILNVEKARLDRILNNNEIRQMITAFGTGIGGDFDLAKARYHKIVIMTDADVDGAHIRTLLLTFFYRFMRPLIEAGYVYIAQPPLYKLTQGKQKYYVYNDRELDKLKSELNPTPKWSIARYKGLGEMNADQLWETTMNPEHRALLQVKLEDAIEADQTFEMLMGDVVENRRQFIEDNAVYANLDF
Sequence of DNA gyrase (Staphylococcus aureus, UniProt P0A0K8+P20831) (P20831 whole entry): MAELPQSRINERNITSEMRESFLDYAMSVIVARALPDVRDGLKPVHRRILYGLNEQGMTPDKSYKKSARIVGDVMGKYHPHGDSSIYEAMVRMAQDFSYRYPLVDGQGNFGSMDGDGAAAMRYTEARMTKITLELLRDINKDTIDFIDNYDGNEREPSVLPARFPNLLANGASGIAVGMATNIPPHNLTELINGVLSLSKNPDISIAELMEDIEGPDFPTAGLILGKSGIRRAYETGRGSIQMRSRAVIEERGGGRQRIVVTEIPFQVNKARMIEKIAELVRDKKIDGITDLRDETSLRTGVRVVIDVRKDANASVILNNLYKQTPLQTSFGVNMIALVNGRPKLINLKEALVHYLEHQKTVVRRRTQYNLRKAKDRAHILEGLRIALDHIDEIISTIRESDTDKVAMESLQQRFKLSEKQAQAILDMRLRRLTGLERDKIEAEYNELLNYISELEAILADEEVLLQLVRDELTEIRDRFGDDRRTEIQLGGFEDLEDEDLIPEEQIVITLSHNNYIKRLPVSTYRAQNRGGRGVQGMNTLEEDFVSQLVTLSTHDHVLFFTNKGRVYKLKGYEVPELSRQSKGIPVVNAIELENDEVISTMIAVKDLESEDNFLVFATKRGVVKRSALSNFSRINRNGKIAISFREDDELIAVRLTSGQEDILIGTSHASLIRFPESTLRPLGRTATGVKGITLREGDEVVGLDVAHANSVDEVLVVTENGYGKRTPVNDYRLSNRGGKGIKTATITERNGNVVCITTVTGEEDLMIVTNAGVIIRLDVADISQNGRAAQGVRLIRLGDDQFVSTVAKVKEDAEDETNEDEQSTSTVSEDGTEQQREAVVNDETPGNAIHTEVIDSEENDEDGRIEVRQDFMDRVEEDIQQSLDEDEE

By MIC is commonly meant the lowest concentration found to suppress growth. Consider `CCCN(CCC)CCCN1/C(=C/c2c3ccccc3[n+](C)c3c2oc2ccccc23)Sc2ccccc21.[I-]`, for which the MIC in experiment [1] and in [2] was 0.25 µg/mL throughout. Consider `CCCC(C(=O)O)N1C(=O)/C(=C/c2c[nH]c3ccccc23)SC1=S` (stereo not drawn), for which the MIC in experiment [3] was found to be 250 µg/mL (≈ 694 µM). On to `Cc1cc(/C=C2\Sc3ccccc3N2CCCN2CCC(C)CC2)c2ccccc2[n+]1C.[I-]`, for which the MIC in experiment [4] is 2 µg/mL. Usually IC50 stands for the concentration that gives 50% inhibition. Consider `COC(=O)CC(=O)Nc1nc2c(s1)C[C@@H](NC(=O)c1[nH]c(C)c(Br)c1Cl)CC2`, for which, in [5], the MIC turned out to be 8 µg/mL (≈ 16.3 µM). The IC50 in experiment [6] amounted to 56 nM; in [7], 3.7 µM. For the compound `O=C(O)c1cccc(N2C(=O)/C(=C/c3c[nH]c4ccccc34)SC2=S)c1`, the MIC in [8] turned out to be 12 µg/mL (≈ 31.5 µM). Consider `CN1/C(=C/c2cc(/C=C/c3cccnc3)[n+](C)c3ccccc23)Sc2ccccc21.[I-]`, for which the MIC in experiment [9], in experiment [10] and in experiment [11] was 1.5 µg/mL throughout. In the case of `C=C(C)[C@@H]1CC=C2c3sc(-c4cc(O)cc(O)c4)nc3C[C@@H](C)[C@]2(C)C1`, in [12], the MIC came out at 3.12 µg/mL (≈ 8.49 µM).

What is called MBC is the smallest concentration meeting the test's criterion for killing. Take `NC(=S)N/N=C/C1=CC(c2ccc([N+](=O)[O-])cc2[N+](=O)[O-])C=C1c1ccc(Cl)cc1Cl` (stereo not drawn): in [13], the MBC came out at 38 µg/mL.

The values above are taken from ChEMBL document CHEMBL5518159, “Thiazole-based analogues as potential antibacterial agents against methicillin-resistant Staphylococcus aureus (MRSA) and their SAR elucidation” (Eur J Med Chem, 2023).
